Results: PubChem BioAssay (NCI)
Several values for one entry are separate records, joined by “and”; a condition that tells them apart may be missing. Equal entries are not always repeated.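 Exposure lasted 48 hours, with cells grown in 96-well plates and compounds tested at five concentrations. GI50 is the concentration that inhibits growth by half. TGI is the concentration that stops growth completely.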

Tests used:
Test in all cases: DTP human tumour cell line panel, 48 h
A498 renal = system: A498 renal
CAKI-1 renal = system: CAKI-1 renal
HCC-2998 colon = system: HCC-2998 colon
HCT-15 colon = system: HCT-15 colon
HL-60(TB) leukemia = system: HL-60(TB) leukemia
HOP-92 NSCLC = system: HOP-92 NSCLC
HT29 colon = system: HT29 colon
SR leukemia = system: SR leukemia
U251 CNS = system: U251 CNS
UACC-62 melanoma = system: UACC-62 melanoma

| Compound | GI50 (A498 renal) [µM] | TGI (A498 renal) | GI50 (CAKI-1 renal) [µM] | TGI (CAKI-1 renal) [µM] | GI50 (HCC-2998 colon) [µM] | TGI (HCC-2998 colon) [µM] | GI50 (HCT-15 colon) [µM] | TGI (HCT-15 colon) [µM] | GI50 (HL-60(TB) leukemia) [µM] | TGI (HL-60(TB) leukemia) | GI50 (HOP-92 NSCLC) [µM] | TGI (HOP-92 NSCLC) [µM] | GI50 (HT29 colon) | TGI (HT29 colon) [µM] | GI50 (SR leukemia) [µM] | TGI (SR leukemia) [µM] | GI50 (U251 CNS) [µM] | TGI (U251 CNS) | GI50 (UACC-62 melanoma) [µM] | TGI (UACC-62 melanoma) |
| --- | --- | --- | --- | --- | --- | --- | --- | --- | --- | --- | --- | --- | --- | --- | --- | --- | --- | --- | --- | --- |
| NC(N)=NC(N)=NCCCc1ccco1 | > 500 | > 500 µM | 92.4 | 247 | > 500 | > 500 | > 500 | > 500 | 15.9 | 48.2 µM | 57.5 | 158 | > 500 µM | > 500 | 19.6 | 89.8 | 150 | > 500 µM | 37.8 | 111 µM |
| Cc1ccc2c(c1)C(=O)c1c-2c(OCCCN(C)C)nc2ccccc12 | 4.02 | 14.3 µM | 4.1 | 18.2 | 2.18 | 11.8 | 0.548 | 1.94 | 2.31 | 19.6 µM | 2.18 | 11.6 | 0.71 µM | 3.33 | 0.316 | 1.38 | 4.13 | 14.8 µM | 2.08 | 4.34 µM |
| N#C/C(=N\Nc1ccccc1)C(=O)Nc1cc(-c2ccccc2)nn1-c1ccccc1 | – | – | 2.88 | > 100 | 3.81 | > 100 | 2.98 | > 100 | 2.94 | 22.1 µM | 0.181 | 2.58 | 3.2 µM | 17.3 | 5.19 | > 100 | 3.14 | 16 µM | 1.65 | > 100 µM |
| O=C(CI)Nc1ccc(O)c2ccccc12 | 2.37 | 9.12 µM | 0.69 | 1.84 | 2.13 | 4.91 | 0.817 | 2.48 | 1.61 | 4.79 µM | 1.61 | 3.39 | 0.504 µM | 2.8 | 0.726 | 3.75 | 1.57 | 3.11 µM | 1.67 | 3.44 µM |
| Cc1ccc(S(=O)(=O)OC(COC(=O)c2ccccc2)C(OS(=O)(=O)c2ccc(C)cc2)C(OS(=O)(=O)c2ccc(C)cc2)C(COC(=O)c2ccccc2)OS(=O)(=O)c2ccc(C)cc2)cc1 (stereo unspecified) | – | > 100 µM | – | > 100 | – | > 100 | – | > 100 | – | > 100 µM | – | > 100 | – | > 100 | – | > 100 | – | > 100 µM | – | > 10 µM |
| C1CN(P2(N3CC3)=NP(N3CC3)(N3CC3)=NP(N3CC3)(N3CC3)=N2)CCO1 (stereo unspecified) | – | > 100 µM | – | > 100 | – | > 100 | – | > 100 | – | > 100 µM | – | > 100 | – | > 100 | – | > 47.4 | – | > 100 µM | – | > 100 µM |
| Cc1ccc(NC(=O)/C(Cc2cc(=O)oc3cc(O)ccc23)=N\NC(C)(C)C)cc1C | – | > 100 µM | – | > 100 | – | > 100 | – | > 100 | – | > 100 µM | – | > 100 | – | > 100 | – | > 100 | – | > 100 µM | – | > 100 µM |
| COC(=O)C(=O)C(C(=O)C(=O)Nc1ccccc1OC)c1nc2ccc([N+](=O)[O-])cc2[nH]c1=O (stereo unspecified) | – | > 100 µM | – | > 100 | – | > 100 | – | > 100 | – | > 100 µM | – | > 100 | – | > 100 | – | > 100 | – | > 100 µM | – | > 100 µM |
| CCC1(OC(=O)CN)C(=O)OCc2c1cc1n(c2=O)Cc2cc3ccccc3nc2-1 (stereo unspecified) | 0.0129 | 0.159 µM and 0.559 µM | 0.00739 | – | 0.175 | 1.08 | 0.192 | > 20.3 | – | 0.084 µM and < 0.0132 µM | 0.0971 | – | 0.111 µM and 0.0374 µM | > 100 | – | < 0.0347 | 0.0118 | 0.333 µM and 0.636 µM | 0.00787 | 0.0895 µM and 0.0596 µM |
| O=CN1N=C(c2cccc(Nc3ccnc4cc(Cl)ccc34)c2)CC1c1ccccc1 (stereo unspecified) | 0.23 | 1.1 µM | 0.348 | 7.54 | 1.03 | 5.57 | 0.511 | > 100 | 0.213 | 0.487 µM | 0.209 | 0.787 | 0.327 µM | 1.15 | 0.201 | 1.72 | 0.358 | 1.55 µM | 0.444 | 21.8 µM |
| Clc1ccc2nc(CI)c(CI)nc2c1 | 29.7 | > 60.7 µM | 9.56 | 24.9 | 15.7 | 30.3 | 3.46 | 12.1 | 1.23 | 9.06 µM | 3 | 8.3 | 3.74 µM | 19.6 | 1.68 | 6.79 | 2.71 | 7.23 µM | 4.73 | 17.2 µM |
| C[C@H]1COCCN1c1cc(C2(S(=O)(=O)C3CC3)CC2)nc(-c2ccc(NC(=S)NCCO)cc2)n1 | < 0.01 | < 0.0135 µM | 0.139 | 10.2 | 0.035 | > 70.3 | 0.17 | > 100 | 0.702 | 28.6 µM | < 0.01 | 0.0607 | 0.0648 µM | > 60.4 | 0.0296 | > 58.2 | 0.0524 | 32.2 µM | < 0.01 | 0.0883 µM |
| Cc1nc2ccccn2c1NC(=O)NNC(=S)Nc1ccc(F)cc1 | > 100 | > 100 µM | > 100 | > 100 | > 100 | > 100 | > 100 | > 100 | > 100 | > 100 µM | > 100 | > 100 | > 100 µM | > 100 | 19.5 | > 100 | > 100 | > 100 µM | > 100 | > 100 µM |
| Cn1c(-c2ccccc2)c(/C=C/C2=[N+](C)c3ccccc3C2(C)C)c2ccccc21 | 1.71 | 10.9 µM | 1.81 | 5.08 | 0.365 | 3.42 | 3.92 | 22.1 | 0.254 | 0.565 µM | 0.616 | 4.64 | 0.711 µM | 7.59 | 0.433 | 5.77 | 0.46 | 12.8 µM | 0.6 | 3.97 µM |
| COc1cc(NS(C)(=O)=O)ccc1NCc1c2ccccc2nc2ccccc12 | – | – | – | > 100 | – | > 100 | – | > 100 | – | 47.4 µM | – | 92.7 | – | > 100 | – | 62.9 | – | > 100 µM | – | > 100 µM |
| Cn1nc(C(F)(F)F)c(-c2cc(C(F)(F)F)cc(C(F)(F)F)c2)c1-c1ccc(OCc2ccc(Cl)cc2)cc1O | 1.31 | 5.13 µM | 2.11 | 5.9 | 2.77 | 12.4 | 2.14 | 10.7 | 2.08 | 5.57 µM | 1.63 | 5.07 | 2.9 µM | 10.6 | 1.79 | 7.51 | 2.38 | 12.1 µM | 1.45 | 4.05 µM |
| COc1ccc(NC(=O)c2sc3nc(C)c(C(=O)/C=C/c4cccc(OC)c4)cc3c2N)cc1 | 1.08 | 3.22 µM | 1.96 | 6.99 | 1.52 | 5.32 | 1.01 | 2.42 | 1.34 | 4.24 µM | 1.51 | 9.99 | 1.02 µM | 2.35 | 1.24 | 5.92 | 1.01 | 2.14 µM | 1.39 | 4.11 µM |
| COc1ccc(/C=C2\SC(=Nc3ccccc3)NC2=O)cc1 | 1.08 | 7.34 µM | 3.98 | > 100 | 10 | > 100 | 2.73 | > 100 | 3.53 | > 100 µM | 7.64 | 53.5 | 4.38 µM | 19.5 | 2.5 | 30.7 | 3.98 | 16.3 µM | 4.79 | > 100 µM |
| CC1=NOC(=O)/C1=C/c1ccc([N+](=O)[O-])cc1 | – | > 100 µM | – | > 100 | – | > 100 | – | > 100 | – | > 100 µM | – | > 100 | – | > 100 | – | > 100 | – | > 100 µM | – | > 100 µM |
| O=C1C(=O)c2ccccc2C(O)=C1CCCc1ccc(C2CCCCC2)cc1 | 2.35 | 20.9 µM | 2.02 | 6.51 | 11.6 | 61.4 | 3 | 24.6 | 2.94 | 28.5 µM | 1.71 | 24 | 5.11 µM | > 100 | 2.44 | 31 | 6.42 | > 100 µM | 0.816 | 19.4 µM |
| CC1(C)OC(=O)C(C#N)=C1C[n+]1ccccc1 | – | > 10 µM | – | > 10 | – | > 10 | – | > 10 | – | > 10 µM | – | > 10 | – | > 10 | – | > 10 | – | > 10 µM | – | – |
| CC(=O)OC12c3ccccc3-c3ccccc3C1C(C(=O)O)C2C(=O)O (stereo unspecified) | – | > 10 µM | – | > 10 | – | > 10 | – | > 10 | – | > 10 µM | – | > 10 | – | > 10 | – | > 10 | – | > 10 µM | – | – |
